Results on 5 molecules are retold here after US20240299367A1, “METHODS OF TREATING ACUTE RESPIRATORY DISTRESS SYNDROME WITH ACTIVATORS OF TIE-2” (AERPIO PHARMACEUTICALS, INC., priority 2020, published 2024).

Read-outs that look alike come from different tables or passages of the source.

In data set [1] the target is HPTPβ (Homo sapiens (Human), UniProt P23467). The data set can be described thus: HPTPβ inhibitory activity (IC50). It counts as biochemical.
For data set [2], the system named is polymicrobial septic shock. The data set can be described thus: Cecal ligation and puncture (CLP) model of sepsis, survival. It counts as in vivo, Sprague Dawley rats. As to conditions: rats, SC BID days 1-5, monitored 10 days, Cpd 1 10 mg/kg, IM 20 mg/kg.
In data set [3] the test system is SARS-COV, MERS-COV, and SARS-CoV-2. The conditions noted are these: cell culture and animal models; cited from earlier work.
For data set [4] the following is noted: 0.9% saline, cited from earlier work.
The nature of data set [5]: Urine albumin/creatinine ratio (UACR) in Phase 2 and Phase 2b studies. It counts as in vivo, human. As to conditions: Phase 2, patients with evidence of diabetic nephropathy.

HPTPβ, sequence (P23467 23-1997): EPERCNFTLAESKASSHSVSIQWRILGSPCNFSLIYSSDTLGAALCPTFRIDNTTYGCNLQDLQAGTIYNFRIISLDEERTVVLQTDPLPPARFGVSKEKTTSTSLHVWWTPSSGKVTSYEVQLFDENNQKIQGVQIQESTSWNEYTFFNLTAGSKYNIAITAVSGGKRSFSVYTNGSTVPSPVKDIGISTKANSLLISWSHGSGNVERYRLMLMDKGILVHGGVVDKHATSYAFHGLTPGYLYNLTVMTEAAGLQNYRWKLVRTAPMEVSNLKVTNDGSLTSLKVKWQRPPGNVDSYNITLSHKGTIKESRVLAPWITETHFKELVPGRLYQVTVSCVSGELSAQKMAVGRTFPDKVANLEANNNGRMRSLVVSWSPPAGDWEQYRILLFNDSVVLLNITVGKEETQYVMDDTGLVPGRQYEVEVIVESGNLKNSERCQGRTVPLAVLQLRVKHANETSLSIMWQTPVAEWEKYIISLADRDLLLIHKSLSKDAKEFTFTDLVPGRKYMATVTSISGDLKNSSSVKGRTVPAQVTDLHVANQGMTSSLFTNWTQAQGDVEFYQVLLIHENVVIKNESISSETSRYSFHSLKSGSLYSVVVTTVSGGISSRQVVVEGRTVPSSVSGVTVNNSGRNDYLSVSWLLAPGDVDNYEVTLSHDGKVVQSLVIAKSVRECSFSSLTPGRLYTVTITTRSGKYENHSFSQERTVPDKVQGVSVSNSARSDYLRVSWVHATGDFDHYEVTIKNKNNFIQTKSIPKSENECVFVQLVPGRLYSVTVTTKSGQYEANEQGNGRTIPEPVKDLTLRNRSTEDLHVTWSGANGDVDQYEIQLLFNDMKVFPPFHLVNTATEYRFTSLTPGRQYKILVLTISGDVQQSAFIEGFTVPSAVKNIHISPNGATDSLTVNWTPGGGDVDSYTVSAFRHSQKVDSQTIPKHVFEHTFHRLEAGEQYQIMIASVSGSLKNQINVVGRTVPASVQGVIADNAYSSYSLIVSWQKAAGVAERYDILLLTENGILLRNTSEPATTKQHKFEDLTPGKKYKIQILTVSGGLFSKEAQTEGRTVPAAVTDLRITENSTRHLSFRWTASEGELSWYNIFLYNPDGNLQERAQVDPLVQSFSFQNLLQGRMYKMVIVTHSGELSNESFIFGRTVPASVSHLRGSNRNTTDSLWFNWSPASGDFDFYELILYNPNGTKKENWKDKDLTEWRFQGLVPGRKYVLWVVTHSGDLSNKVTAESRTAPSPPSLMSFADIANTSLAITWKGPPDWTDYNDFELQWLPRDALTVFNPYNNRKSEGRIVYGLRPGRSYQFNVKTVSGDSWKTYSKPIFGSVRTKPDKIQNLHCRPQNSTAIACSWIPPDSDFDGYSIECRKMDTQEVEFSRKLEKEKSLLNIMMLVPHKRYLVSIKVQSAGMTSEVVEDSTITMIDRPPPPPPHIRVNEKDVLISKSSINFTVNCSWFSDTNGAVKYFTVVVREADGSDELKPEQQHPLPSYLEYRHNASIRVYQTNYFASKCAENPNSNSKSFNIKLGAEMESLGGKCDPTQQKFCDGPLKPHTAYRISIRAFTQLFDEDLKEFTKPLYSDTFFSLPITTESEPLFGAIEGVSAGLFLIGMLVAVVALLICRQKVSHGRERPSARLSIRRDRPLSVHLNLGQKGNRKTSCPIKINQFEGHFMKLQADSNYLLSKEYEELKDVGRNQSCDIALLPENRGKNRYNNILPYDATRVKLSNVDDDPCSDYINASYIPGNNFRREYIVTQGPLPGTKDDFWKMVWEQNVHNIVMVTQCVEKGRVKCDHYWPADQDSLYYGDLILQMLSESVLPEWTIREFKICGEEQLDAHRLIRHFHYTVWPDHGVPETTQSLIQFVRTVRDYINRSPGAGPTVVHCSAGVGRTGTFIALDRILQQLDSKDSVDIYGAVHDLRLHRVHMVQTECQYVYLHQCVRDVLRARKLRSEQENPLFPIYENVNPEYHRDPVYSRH

Molecule `COC(=O)Cc1csc([C@H](Cc2ccc(NS(=O)(=O)O)cc2)NC(=O)OC(C)(C)C)n1` [AA70, (S)-4-(2-(tert-Butoxycarbonyl)-2-(4-(2-(2-methoxy-2-oxoyethylamino)-2-oxoethyl)thiazole-2-yl)ethyl)phenylsulfamic acid] showed an IC50 in data set [1] of 132 nM. Still for that read-out and setting: to `Cc1nc([C@H](Cc2ccc(NS(=O)(=O)O)cc2)NC(=O)OC(C)(C)C)cs1` [AA64] belongs 33 nM. In turn, `C[C@@H](O)[C@H]1C(=O)N2C(C(=O)O)=C(SCCN=CN)C[C@H]12` [IM, imipenem] gave a survival in data set [2] of 81%. For the molecule `CCC(CC)COC(=O)[C@H](C)N[P@](=O)(OC[C@H]1O[C@@](C#N)(c2ccc3c(N)ncnn23)[C@H](O)[C@@H]1O)Oc1ccccc1` [Remdesivir], the antiviral activity result in data set [3] was “exhibits activity in cell culture and animal models”. Moreover, the “storage time of diluted solution” value in data set [4] (refrigerated (2° C. to 8° C.)) is 24 h; in data set [4] (room temperature (20° C. to 25° C.)), “up to 4 hours”.

B1: ranibizumab (antibody, chains of the INN, looked up, V domains shown)
VH: EVQLVESGGGLVQPGGSLRLSCAASGYDFTHYGMNWVRQAPGKGLEWVGWINTYTGEPTYAADFKRRFTFSLDTSKSTAYLQMNSLRAEDTAVYYCAKYPYYYGTSHWYFDVWGQGTLVTVSS
VL: DIQLTQSPSSLSASVGDRVTITCSASQDISNYLNWYQQKPGKAPKVLIYFTSSLHSGVPSRFSGSGSGTDFTLTISSLQPEDFATYYCQQYSTVPWTFGQGTKVEIK
modifications: Fab
notes: anti-VEGF agent, standard-of-care intravitreal injection
For the molecule B1, the UACR change result in data set [5] is “increase”.
